# Measured values from patent US12054714B2, “Peptide docking vehicle for targeted nucleic acid delivery” (Sirnaomics, Inc., priority 2019, dated 2024).
# {GalNAc3} = trivalent GalNAc cluster through an NHC6 amino-hexyl linker
# How the values were obtained:
# ahsa1 = assay: Dose-response screen in primary mouse hepatocytes, ahsa1-specific probe (standard control); assay type: cell-based; details: 72 hours
# Description: (§1) Dose-response screens for GalNAc-conjugated siRNAs (mTTR1-PDoV3-GalNAc3, mTTR1-PDoV2-GalNAc3, mTTR2-GalNAc3 positive control, mTTR2-GalNAc3 positive control) were performed using primary mouse hepatocytes for target TTR. The cell density was 40000 cells/96 well. The concentration was from: highest at 1 μM in 5-fold dilutions to lowest at […]. Cells were transfected by direct incubation for 72 hours. The data was read out by bDNA assay. The data was analyzed by XLfit software. TTR signal normalized to gapdh, mean of quadruplicates, mock-treated cells set=1, Xlfit for calculation of IC50 values. The primary hepatocytes used were purchased from Primacyt, Germany (lot MH181219), derived from CD 1 mice, and treated with siRNA right after thawing.
# (§2) The two siRNAs were both conjugated to trivalent GalNAc clusters at the 3′ end (mTTR2 siRNA sequence was a fully modified sequence and 4 more additional PS linkages modification on the oligonucleotides than mTTR1. (Nair, et al., J. Am. Chem. Soc. 136:16958-16961(2014). Aha1-GaNAc3 positive control was used as a standard control, targeted to the housekeeper ahsa1. This was used as both negative and positive control, hybridizing the cell lysates either to the screening target or to an ahsa1-specific probe. Table e1 lists the sequences of the 2 control siRNAs and the structure of the GalNAc cluster. Table e1. Control siRNA sequence and targets. (Images discloses SEQ ID NOS 36, 47-48, 59, and 47-48, respectively, in order of appearance)
# TTR = assay: Dose-response screen of GalNAc-conjugated siRNAs in primary mouse hepatocytes, bDNA read-out; assay type: cell-based; details: direct incubation 72 hours
# Description: as §1, §2
Substance,IC50 (ahsa1),IC80 (ahsa1),Max. KD (ahsa1),IC80 (TTR; TTR signal normalized to gapdh),"IC50 (TTR; TTR signal normalized to gapdh, Xlfit)",Max. KD (TTR; highest concentration 1 μM)
"aha1-GalNAc3 positive control: standard control siRNA targeted to the housekeeper ahsa1, conjugated to trivalent GalNAc cluster at 3′ end (SEQ ID NO: 41/42) (chain 1 UCUCGUGGCCUUAAUGAAA; chain 2 UUUCAUUAAGGCCACGAGAUU; chain 1: linkages s2 o16 (s phosphorothioate, o phosphodiester), 3' {GalNAc3}, sugars by position and methylation of C not given here; chain 2: linkages s2 o16 s2 (s phosphorothioate, o phosphodiester), sugars by position and methylation of C not given here; further chemistry not fully specified)",1.5 nM,5.9 nM,96%,,,
"mTTR2-GalNAc3 positive control: fully modified siRNA against mouse TTR conjugated to trivalent GalNAc cluster at the 3′ end (SEQ ID NO: 39/40; Nair et al.) (chain 1 AACAGUGUUCUUGCUCUAUAA; chain 2 UUAUAGAGCAAGAACACUGUUUU; chain 1: linkages s2 o18 (s phosphorothioate, o phosphodiester), 3' {GalNAc3}, sugars by position and methylation of C not given here; chain 2: linkages s2 o18 s2 (s phosphorothioate, o phosphodiester), sugars by position and methylation of C not given here; fully modified, Nf 2'-fluoro, further chemistry not fully specified)",,,,0.3 nM,0.1 nM,96%
